Assays:
[1] = test system: Vero cells; format: cell-based; details: green monkey, 96 h
Procedure: (§1) Compounds were added to the plates and diluted following a dose-response pattern in assay medium. Vero cells were prepared in assay medium and added to each well as described ([Martinez-Peinado et al., 2020]). Each test plate contained its own negative (untreated cells) and positive (medium alone) control wells ([Martinez-Peinado et al., 2020]). BNZ and digitoxin (DTX) were included as non-toxicity and toxicity drug controls, respectively. Parallel assays with HepG2 cells were carried out to evaluate the toxicity of compounds in a human cell line as described ([Martinez-Peinado et al., 2020]). […] Vitality was measured with Alamar Blue (Thermo Fischer Scientific, Waltham, USA) to detect metabolically active (live) cells by fluorimetry. For this, a PBS dilution with 10% Alamar Blue was added to each well and the plates were incubated at 37°C for 6 h. Readout was performed on a TECAN Infinite M Nano+ reader (Tecan Trading AG, Männedorf, Switzerland) using i-control™ 2.0 software and setting excitation at 530 nm and emission at 590 nm.

[2] = test system: HepG2 cells; assay: HepG2 cell toxicity assay (Alamar Blue, 48 h); format: cell-based, human
Procedure: as §1

[3] = test system: T. cruzi amastigotes; assay: Amastigotes growth inhibition assay (infected Vero cells, 72 h, CPRG); details: for IC50: Trypanosoma cruzi, Vero, 72 h, read-out: [IC50] Anti-amastigote assay; for activity against amastigotes: active = IC50 ≤ 10× that of BNZ
Procedure: Upon washing the monolayers with PBS, purified trypomastigotes were added at a concentration of 1×10^7 trypomastigotes per flask (MOI = 1) and infected monolayers were kept in assay medium. After 18 h, infected Vero cells were PBS-washed and trypsin-detached, diluted at a concentration of 5×10^5 cells per ml in assay medium and 100 μl of that solution (50000 cells) added to 96-well test plates already containing the compounds.
(§2) Half maximum inhibitory (IC50) and half maximum toxicity concentration (TC50) values were determined with GraphPad Prism 7 software (version 7.00, San Diego, USA) using a nonlinear regression analysis model defined by equation 2:
(§3) Values were expressed as means with standard deviations (SD) of at least three independent experiments.

[4] = test system: T. cruzi Tulahuen parasites; details: Vero TC50 / anti-T. cruzi IC50
Procedure: Trypomastigotes were isolated for the maintenance of the cycle and for the performance of the antiparasitic assays, respectively. Briefly, medium containing free swimming trypomastigotes was harvested in falcon tubes and centrifuged at 2,500 rpm for 10 minutes to remove cell debris. […] In the second case, another centrifugation was made to get rid of any PR remnants that may interfere in the assay readout.
Compounds were added to a flat 96-well cell culture plate (SPL Life Sciences, Pocheon-si, Korea) and diluted in assay medium following a 1:2 dose-response pattern. Vero cells were detached, washed and counted using a Neubauer chamber. On the other side, T. cruzi trypomastigotes were collected and counted. Then, 50,000 trypomastigotes and 50,000 Vero cells were simultaneously added to each well to reach a final volume of 200 μl per well (multiplicity of infection or MOI = 1). […] Note that trypomastigotes are unable to multiply and therefore they mark the enzymatic time zero. In addition to those controls, BNZ-treated wells were also included as a positive control of drug inhibition. Plates were incubated at 37°C for 96 h. After that, chlorophenol red-β-D-galactopyranoside (CPRG) substrate was added to detect the enzymatic activity of β-galactosidase expressed by the parasites. […] Absorbance was measured at 590 nm in an Epoch Gene5 Microplate Spectrophotometer (BioTek, Winooski, USA).
as §2, §3

[5] = Microscopy-based observation of compound dissolution / crystals in assay medium; format: physicochemical; details: for solubility: compounds at 750 μM, read-out: solubility issues / crystals formed during the assays
Procedure: Among the eight compounds selected, five carried the benzene ring group at position C8 illustrating the relevance of this substituent. Family by family, L4-0c was the only selected from L4-0.
Figure S3. Crystals of the compounds [750 μM] formed during the assays. The eight compounds selected through the discovery cascade are shown in bold. Besides, those indicated with an asterisk too had solubility issues. BNZ is shown at 400 μM.

O=C(Cn1ccnc1[N+](=O)[O-])NCc1ccccc1 [BNZ, benznidazole, reference compound]
[TC50] Vero cells assays [1]: 196.90 ± 30.67 µM
[TC50] HepG2 assay ([2]; human): 490.90 ± 267.10 µM
IC50 [3]: 1.47 ± 0.08 µM
SI Vero cells assays (TC50/IC50) [4]: 81.36

Cc1nc2c(NCc3ccccc3)ncnc2n1Cc1ccccc1 [Compound L4-0b]
[TC50] Vero cells assays [1]: 68.16 ± 12.00 µM
SI Vero cells assays (TC50/IC50) [4]: 4.75

c1ccc(CNc2ncnc3c2nc(-c2ccccc2)n3Cc2ccccc2)cc1 [Compound L4-0c]
[TC50] Vero cells assays [1]: > 1,000 μM
[TC50] HepG2 assay ([2]; human): > 10,000 μM
IC50 [3]: 11.2 ± 0.35 µM
activity against amastigotes [3]: active
dissolution in assay medium (microscopy-based observation) [5]: failed to be completely dissolved

c1ccc(CCNc2ncnc3c2ncn3CCc2ccccc2)cc1 [Compound L4-1a]
[TC50] Vero cells assays [1]: 39.26 ± 4.81 µM
SI Vero cells assays (TC50/IC50) [4]: 2.59

Cc1nc2c(NCCc3ccccc3)ncnc2n1CCc1ccccc1 [Compound L4-1b]
[TC50] Vero cells assays [1]: 55.91 ± 5.64 µM
SI Vero cells assays (TC50/IC50) [4]: 3.52

c1ccc(CCNc2ncnc3c2nc(-c2ccccc2)n3CCc2ccccc2)cc1 [Compound L4-1c]
[TC50] Vero cells assays [1]: > 1,000 μM
[TC50] HepG2 assay ([2]; human): 53.96 ± 12.33 µM
IC50 [3]: 6.21 ± 0.29 µM
activity against amastigotes [3]: active

COc1ccc(CNc2ncnc3c2nc(-c2ccccc2)n3Cc2ccc(OC)cc2)cc1 [Compound L4-2c]
[TC50] Vero cells assays [1]: > 1,000 μM
[TC50] HepG2 assay ([2]; human): > 10,000 μM
IC50 [3]: 6.19 ± 0.21 µM
activity against amastigotes [3]: active

Clc1ccc(CNc2ncnc3c2ncn3Cc2ccc(Cl)cc2)cc1 [Compound L4-4a]
[TC50] Vero cells assays [1]: > 1,000 μM
[TC50] HepG2 assay ([2]; human): > 1,000 μM
IC50 [3]: 9.36 ± 0.4 µM
activity against amastigotes [3]: active

Cc1nc2c(NCc3ccc(Cl)cc3)ncnc2n1Cc1ccc(Cl)cc1 [Compound L4-4b]
[TC50] Vero cells assays [1]: 27.01 ± 2.00 µM
SI Vero cells assays (TC50/IC50) [4]: 5.17

Clc1ccc(CNc2ncnc3c2nc(-c2ccccc2)n3Cc2ccc(Cl)cc2)cc1 [Compound L4-4c]
[TC50] Vero cells assays [1]: 187.50 ± 54.14 µM
[TC50] HepG2 assay ([2]; human): 164.80 ± 38.82 µM
IC50 [3]: 4.2 ± 0.21 µM
activity against amastigotes [3]: active

Brc1ccc(CCNc2ncnc3c2nc(-c2ccccc2)n3CCc2ccc(Br)cc2)cc1 [Compound L4-7c]
[TC50] Vero cells assays [1]: 909.20 ± 564.00 µM
[TC50] HepG2 assay ([2]; human): 550.60 ± 130.00 µM
IC50 [3]: 7.51 ± 0.79 µM
activity against amastigotes [3]: active

Clc1cccc(CNc2ncnc3c2ncn3Cc2cccc(Cl)c2)c1 [Compound L4-8a]
[TC50] Vero cells assays [1]: 346.30 ± 189.30 µM
[TC50] HepG2 assay ([2]; human): 35.21 ± 5.52 µM

Cc1nc2c(NCc3cccc(Cl)c3)ncnc2n1Cc1cccc(Cl)c1 [Compound L4-8b]
[TC50] Vero cells assays [1]: 60.11 ± 8.50 µM
[TC50] HepG2 assay ([2]; human): 17.77 ± 0.71 µM
SI Vero cells assays (TC50/IC50) [4]: 11.65

Clc1cccc(CNc2ncnc3c2nc(-c2ccccc2)n3Cc2cccc(Cl)c2)c1 [Compound L4-8c, N,9-bis(3-chlorobenzyl)-8-phenyl-9H-purin-6-amine]
[TC50] Vero cells assays [1]: > 1,000 μM
[TC50] HepG2 assay ([2]; human): > 1,000 μM
IC50 [3]: 7.61 ± 0.36 µM
activity against amastigotes [3]: active
dissolution in assay medium (microscopy-based observation) [5]: presence of crystals
solubility [5]: < 750 µM

Cc1nc2c(NCc3ccccc3Cl)ncnc2n1Cc1ccccc1Cl [Compound L4-9b]
[TC50] Vero cells assays [1]: > 1,000 μM
[TC50] HepG2 assay ([2]; human): 372.20 ± 51.70 µM
IC50 [3]: 8.87 ± 0.42 µM
activity against amastigotes [3]: active
dissolution in assay medium (microscopy-based observation) [5]: presence of crystals
solubility [5]: < 750 µM

Clc1ccccc1CNc1ncnc2c1nc(-c1ccccc1)n2Cc1ccccc1Cl [Compound L4-9c]
[TC50] Vero cells assays [1]: > 10,000 μM
[TC50] HepG2 assay ([2]; human): >10,000 μM
IC50 [3]: 28.7 ± 2.34 µM
activity against amastigotes [3]: inactive
SI Vero cells assays (TC50/IC50) [4]: > 10,000

C[C@H]1O[C@@H](O[C@H]2[C@@H](O)C[C@H](O[C@H]3[C@@H](O)C[C@H](O[C@H]4CC[C@@]5(C)[C@H](CC[C@@H]6[C@@H]5CC[C@]5(C)[C@@H](C7=CC(=O)OC7)CC[C@]65O)C4)O[C@@H]3C)O[C@@H]2C)C[C@H](O)[C@@H]1O [DTX, digitoxin, reference compound]
[TC50] HepG2 assay ([2]; HepG2 cells, mean ± SD): 1.29 ± 0.40 µM
